Test results from article PMC5688848 (Bioorganic & medicinal chemistry, 2016).
One block for each molecule: values may come before it. Ends that are not written are not given here.

What was measured:
[1] = biological target: His-REV7(R124A)/REV3L(1847–1898) complex (Homo sapiens, UniProt Q9UI95, R124A); assay: Thermal shift assay; type: binding; details: compound 500 μM, protein 5 μM, 4 h at room temperature
[2] = biological target: His-REV7(R124A)/biotin-AviTag-REV3L(1846–1898) complex (Homo sapiens, UniProt Q9UI95, R124A); assay: Pull-down assay on streptavidin-conjugated agarose beads; type: binding; details: compound 50 μM, complex 1 μM, 4°C 20 h
[3] = system: HeLa cells; assay: Cisplatin sensitization by the clonogenic survival assay; type: cell-based; details: cisplatin 24 h then compound 75 μM 24 h, 6 more days
[4] = system: ICLR in COS7 cells; assay: ICL repair assay; type: cell-based; details: 75 μM
[5] = system: HeLa cells; assay: Cell toxicity assay; type: cell-based; details: 75 μM, 3 days
[6] = biological target: T1, hexahistidine (His)-REV7(R124A) (UniProt Q9UI95 1-211, R124A); assay: AlphaScreen or HTRF
[7] = biological target: T1, hexahistidine (His)-REV7(R124A); assay: AlphaScreen or HTRF; remark: listed apart in the source

T1 sequence (Q9UI95 whole entry R124A): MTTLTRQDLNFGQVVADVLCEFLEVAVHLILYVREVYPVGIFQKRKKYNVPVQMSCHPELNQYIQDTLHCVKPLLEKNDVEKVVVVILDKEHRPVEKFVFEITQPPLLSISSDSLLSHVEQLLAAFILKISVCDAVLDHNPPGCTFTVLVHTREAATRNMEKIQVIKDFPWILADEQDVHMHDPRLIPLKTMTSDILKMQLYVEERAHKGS
Chain of His-REV7(R124A)/biotin-AviTag-REV3L(1846–1898) complex (Q9UI95 whole entry R124A, one chain of several): as the sequence (Q9UI95 whole entry R124A) above
Chain of His-REV7(R124A)/REV3L(1847–1898) complex (Q9UI95 whole entry R124A, one chain of several): as the sequence (Q9UI95 whole entry R124A) above

Molecule: CC(=O)N1CCC(Cn2cnc3scc(-c4ccc(C)o4)c3c2=O)CC1 [compound 7]
Normalized number of colonies (clonogenic survival) versus cisplatin only [3]: lesser
ICLR activity (luciferase activity of ICL plasmid normalized to non-ICL plasmid) [4]: suppressed luciferase activity
Viability / growth of HeLa cells (alamarBlue), normalized by DMSO [5]: decreased HeLa cell growth but did not completely eliminate the cells

Molecule: ANILKPLMSPPSREEIMATLL-biotin [C-terminal biotin-tagged REV3L(1875–1895) peptide]
binding result [6]: binds

Second part, led by results:

Shift in the denaturation point of the His-REV7(R124A)/REV3L(1847–1898) complex [1]: clear shift in the denaturation point
Molecule: CC(=O)N1CCC(Cn2cnc3scc(-c4ccco4)c3c2=O)CC1 [compound 1]
Isolation of His-REV7(R124A) on streptavidin beads (complex dissociation) [2]: significantly inhibited

IC50 [7]: 80 nM
Molecule: ANILKPLMSPPSREEIMATLL [non-tagged REV3L(1875–1895) peptide]
